Assay results reported in ChEMBL document CHEMBL1151147, “Furanoid lignans from Larrea tridentata” (J Nat Prod, 1990).
Active and inactive are the calls of the source.

How the values were obtained:
Type in all cases: functional, organism-based
Rattus norvegicus [1] = test: Antiimplantation activity in Sprague-Dawley rat assessed as decrease in implantation sites at 30 mg/kg administered postcoitally; set-up: dose 30 mg/kg
Rattus norvegicus [2] = test: Antiimplantation activity in Sprague-Dawley rat at 5 mg/kg, po administered postcoitally; set-up: dose 5 mg/kg
Rattus norvegicus [3] = test: Antiimplantation activity in Sprague-Dawley rat assessed as decrease in implantation sites at 60 mg/kg administered postcoitally; set-up: dose 60 mg/kg
Rattus norvegicus [4] = test: Estrogenic activity in Sprague-Dawley rat at 30 mg/kg; set-up: dose 30 mg/kg
Rattus norvegicus [5] = test: Antiimplantation activity in Sprague-Dawley rat assessed as decrease in fertility rate at 30 mg/kg administered postcoitally; set-up: dose 30 mg/kg
Rattus norvegicus [6] = test: Antiimplantation activity in Sprague-Dawley rat assessed as absence of viable fetuses at 15 mg/kg administered postcoitally; set-up: dose 15 mg/kg
Rattus norvegicus [7] = test: Antiimplantation activity in Sprague-Dawley rat administered postcoitally

Measured: Activity

C[C@H]1[C@H](c2ccc(O)cc2)c2cc(O)c(O)cc2C[C@H]1C
active: Rattus norvegicus [1] | Rattus norvegicus [3] | Rattus norvegicus [4] | Rattus norvegicus [5] | Rattus norvegicus [6] | Rattus norvegicus [7] Dose-dependent effect
inactive: Rattus norvegicus [2]
